Experimental data as given in patent publication US20250302816A1, “DISRUPTION OF EPITHELIAL BARRIERS FOR MOLECULAR DELIVERY ENHANCEMENT OR EXTRACTION OF EXTRACELLULAR FLUIDS” (The University of Nottingham, priority 2022, published 2025).

What was measured:
Calu-3 = assay: Further in vitro Transwell studies: enhancing translocation of 4 kDa FITC-dextran; format: cell-based, human
Description: Exemplary molecules (a)-(1) investigated in coarse dose-response by FD4 delivery in Transwell culture (Calu-3). Each molecule was screened at 5 nM, 1 μM, 200 μM levels.
Each compound was screened at 200 μM level.
Each molecule was screened at 5 nM, 1 μM, 200 μM levels.

[1] = tested on: human primary lung epithelium; assay: Human primary lung epithelium, air-liquid interface culture: TEER, FD4 and mAb delivery; format: cell-based
MMP = assay: Fluorogenic MMP activity assay; format: cell-based, human
Description: FIG. 5: High-throughput MMP assay (MMP Activity Assay Kit (Fluorometric-Red), Abcam #ab112147) showing the normalised accumulation slope of FRET-based signal (Ex540: Em590 nm) read at 5 minute intervals for one hour in adherent Calu-3 cells cultured in glass-bottomed 96-well plates using a SpectraMax i3x/Biomek FXPP high-throughput platform. Each experiment was conducted in triplicate (error bars). Signal accumulation over time in each well was linearly fitted and the gradient of each fit was scaled against the gradient of the relevant positive control wells, to which active MMP was added directly (mixed isoforms, […]), to obtain the normalised accumulation slope.
To investigate the involvement of MMP in the disruption of tight junctions observed in the presence of 200 μM 3OC12-HSL and C7 PQS, a fluorogenic MMP activity assay was performed, using the Amplite™ Universal Fluorimetric MMP Activity Assay Kit. This kit is designed to check the general activity of a MMP enzyme.
Following treatment with 3OC12-HSL and C7 PQS respectively, the conditioned media were collected every hour from apical chamber and MMP activity was determined by using Amplite™ Universal Fluorimetric MMP Activity Assay Kit Green Fluorescence according to the manufacturer's instructions.
A fluorogenic MMP activity assay was carried out in the same manner on further agents.

ZO-1 = ZO-1 immunostaining and confocal microscopy of Calu-3 cell layers; format: cell-based, human; conditions: 200 μM, one hour, vs vehicle 0.15% DMSO
Description: To visualise the effect of 3OC12-HSL and C7 PQS on tight junction integrity in Calu-3 cell layers, ZO-1, immunostaining and confocal microscopy was performed on cell layers treated by 200 μM 3OC12-HSL and C7 PQS and control (0.15% DMSO in HBSS) for one hour. Confluent cell monolayers were washed with PBS and fixed in 4% paraformaldehyde in PBS for approximately 10 min at room temperature. Cells were then washed 3 times with PBS and permeabilised by incubating with Triton X-100 (0.1% v/v in PBS) for 10 min. Cells were then washed with PBS, followed by the application of 1% BSA/PBS for approximately 1 hour. Thereafter, BSA/PBS solution was aspirated and replaced with mouse, anti-human ZO-1 (primary) antibody, diluted in 1% BSA/PBS to a final concentration of 100 μg/ml. Cell samples were incubated with the primary antibody for 2 hours. The primary antibody solution was then removed and cells washed with PBS (5 times). FITC-labelled goat, anti-mouse (secondary) antibody, diluted according to manufacturer's instructions in 1% BSA/PBS was then applied to the cells for 1 hour. The secondary antibody solution was then aspirated and cells washed with PBS three times. […]

Calu-3 cells = assay: MTS assay of metabolic activity / cell viability; format: cell-based, human; conditions: 5 nM to 200 μM, 6 hours
Description: To assess 3OC12-HSL and C7 PQS molecules cytotoxicity on cell viability of Calu-3 cell layers and to monitor short-term cytotoxicity during experiments, Calu-3 cells were treated with 3OC12-HSL and C7 PQS, at concentrations 5 nM, 1 μM, 50 μM, 100 μM and 200 μM, for 6 hours. At the end of the treatment, cell viability (through measuring metabolic activity) of cultures was determined by chromogenic MTS assay.
The viability of Calu-3 cells was determined by a chromogenic MTS method based on the measuring of mitochondrial respiration, assessed by the reduction of 3-(4,5-dimethylthiazol-2-yl)-5-(3-carboxymethoxyphenyl)-2-(4-sulfophenyl)-2H-tetrazolium to formazan. Calu-3 cells were cultured in a 96-well plate (CellTiter 96® Aqueous, Promega) at a density of 10^4 cells per well and incubated at 37° C., 5% CO2 for 24 hours. After 24 hours, the medium was replaced with 100 μl of test compounds dissolved in HBSS and then cells were incubated for 6 hours. HBSS and Triton X-100 (0.1% v/v in HBSS) were used as the negative and positive controls respectively. Bathing solutions were then aspirated and cells washed with PBS. Then culture medium (100 μl at 37° C.) plus MTS reagent (20 μl) were added into each well and cells were incubated for 2 hours. Absorbance at 492 was measured using a Dynex absorbance microplate reader (Dynex Technologies, USA) and converted into a percentage metabolic rate.

Calu-3 cell layers = assay: FD4 permeability and TEER of polarised Calu-3 cell layers; format: cell-based, human
ARPE-19 cell layers = assay: Transwell drug transport across ARPE-19 cell layers with or without 3OC12-HSL; format: cell-based, human; conditions: doxorubicin 250 μg/ml apical, after 5 hours
Description: FIG. 1: Macromolecular therapeutics transported across ARPE-19 cell layers in the absence and presence of 3OC12-HSL transported into the basolateral chamber over a period of five hours. Permeability experiments were initiated by applying 0.5 ml of the test solutions (250 μg/ml Aflibercept/Bevacizumab/or Doxorubicin diluted in HBSS/HEPES) to the apical side of the cells (donor compartment of the Transwell) with or without 3OC12-HSL (200 μM). Drug permeability was determined by sampling the basolateral solution at regular time intervals. Data points are expressed as means±SEM, derived from three replicates in triplicate. p values of <0.05 were considered statistically significant. *, ** and *** denote p<0.05, p<0.01 and p<0.001, respectively.
Calu-3 cells obtained from American Type Culture Collection, USA were cultured using Dulbecco's Modified Eagle Medium (DMEM) supplemented with penicillin (100 U/mL), streptomycin (0.1 mg/mL), amphotericin (0.25 μg/mL), non-essential amino acids (NEM, 1%) and Fetal Bovine Serum (FBS, 10% v/v, Sigma-Aldrich, UK). The human-derived RPE cell line ARPE-19 was obtained from American Type Culture Collection. Cells were grown in Dulbecco's Modified Eagle Medium: F12 (1:1; Gibco, Invitrogen, Carlsbad, CA), including 10% inactivated fetal bovine serum, 100 units/mL penicillin, 100 μg/mL streptomycin, and 2 mM L-glutamine (Sigma-Aldrich). Caco-2 cells were grown in complete culture medium (DMEM supplemented with 17% FBS and 1% antibiotic-antimycotic solution). All cells were kept in a water-jacketed incubator (model 3546, Forma Scientific, Inc., Marietta, OH, USA) maintained at 37° C. and an atmosphere of humidified air with 5% CO2. Medium was replaced every other day until cells reached the 80-90% confluence desired for re-plating or culturing mature, polarised barrier models.
When confluent, cells were seeded on Transwell® filters (12 mm diameter, 0.4 μm pore size; Corning Life Sciences, Holland) at 10^5 cells/cm^2. […]
Three polarised epithelial in-vitro tissue models, including lung epithelium (Calu-3), retinal pigment epithelium (ARPE-19) and intestinal epithelial (Caco-2) were used to study the efficiency of 200 μM 3OC12-HSL as a paracellular permeability enhancer for three different drugs: bevacizumab, aflibercept and doxorubicin (applied concentrations 250 μg/mL). The amount of drugs transported was determined via the conversion of fluorescence intensity to amount (μg or ng), using calibration curves constructed via serial standard dilutions. […]
Permeability experiments were initiated by applying 0.5 mL of the test solutions to the apical side of the cells (donor compartment of the Transwell®). […] Drug permeability was determined by sampling the basolateral solution at regular time intervals. […]

ex-vivo rat eyes = tested on: ex-vivo rat eyes
Description: In order to investigate the efficacy of 3OC12-HSL as drug delivery enhancer in intact tissue, bevacizumab (250 μg/mL: […]) and aflibercept (40 mg/mL: 348 μM) were applied with and without 3OC12-HSL to ex-vivo rat eyes, and the distribution of drugs was visualised within sagittal ocular cryosections by confocal microscopy. A further set of experiments tested efficacy of 3OC12-HSL via ex vivo porcine skin.
Six hooded rats with pigmented eyes, weighing 280-300 g and aged 7-8 weeks were provided by Bio-Support Unit at the Queen's Medical Centre, Nottingham. Experiments were designed to be performed ex-vivo, immediately post-sacrifice, during experiments supporting other studies. Tested therapies (bevacizumab (250 μg/mL), aflibercept (250 μg/mL) with/without 3OC12-HSL (200 μM) were immediately applied post-sacrifice in (50 μL) to the corneal surface of each animal for a period of 1 hour, before being washed off using ice-cold PBS. The eyeballs were enucleated, immersed in OCT, and flash-frozen in isopentane cooled by liquid N2 before being stored at −80° C. for further processing.
OCT-embedded eyes were cut into 15 μm tissue sections using a cryostat (Leica 3050) and mounted on gelatin-coated slides, at cutting temperatures between −15 and −23° C. […]

| Compound | Effective in enhancing translocation (Calu-3) | further results |
| --- | --- | --- |
| CCCCCCCCCc1[nH]c2ccccc2c(=O)c1CN(C)C [3-C1NMe2 C9 PQS] | No |  |
| CCCCCC/C=C/Cc1[nH]c2ccccc2c(=O)c1C [3-Me C9: 2. Quinolone] | No |  |
| CCCCCC/C=C\CCCC(=O)N[C@H]1CCOC1=O [5-cis-C12 HSL] | No |  |
| CCCCCCCc1[nH]c2cc(F)ccc2c(=O)c1O [7F-C7 PQS] |  | TEER (electrical resistance) upon agent exposure [1]: temporarily reduced; mAb (Mepolizumab) delivery upon agent exposure [1]: increased |
| CC(C)CCCCCCc1[nH]c2ccccc2c(=O)c1O [7Me-C8-PQS] | Yes |  |
| Cc1[nH]c2ccccc2c(=O)c1O [C1 PQS (Me PQS)] | Yes |  |
| CCCC(=O)NC1CCOC1=O (stereo not drawn) [C4 HSL (BHL), N-butyl-homoserine-lactone] |  | MMP activation (further MMP screening) (MMP; assay carried out in the same manner on further agents): cause MMP activation |
| CCCCCCCc1cc(O)c2ccccc2[n+]1[O-] [C7 HNQ N-oxide] | Yes |  |
| CCCCCCCc1[nH]c2ccccc2c(=O)c1O [C7 PQS, 2-n-heptyl-3-hydroxy-4 (1H)-quinolone] | Yes | MMP activation in apical samples taken at one-hour intervals (MMP; 200 μM, p<0.01, no fluorescence in control samples): significant MMP activation; period over which MMP activation increased before starting to reduce (MMP; samples taken hourly from apical chamber): 4 h; ZO-1 distribution at tight junctions (ZO-1): considerable dislocation of ZO-1 proteins; cytotoxic effect on cell viability within epithelial layers (Calu-3 cells): do not have an adverse cytotoxic effect; paracellular passage / flux of FD4 from apical to basolateral chamber (Calu-3 cell layers; 200 μM (3OC12-HSL: 200 μM or 1 μM)): increased the flux of FD4; TEER after 7 hours (Calu-3 cell layers; 200 μM, recovery, SEM+/−20): 510 Ωcm^−2; time after which TEER started increasing / cell layer integrity began to recover (Calu-3 cell layers; during exposure): 5 h |
| CCCCCCCCCc1[nH]c2ccccc2c(=O)c1O [C9 PQS] | Yes |  |
| CCCCCCCCCCCc1[nH]c2ccccc2c(=O)c1O [C11 PQS] | Yes |  |
| CCCCCCC/C=C\C(=O)O [Cis-2-decenoic acid, cis-2-decenoic acid] | Yes |  |
| COc1cccc2c1C(=O)c1c(O)c3c(c(O)c1C2=O)C[C@@](O)(C(=O)CO)C[C@@H]3O[C@H]1C[C@H](N)[C@H](O)[C@H](C)O1 [Doxorubicin, reference compound] |  | amount of drug transported into the basolateral chamber (ARPE-19 cell layers; with 3OC12-HSL (200 μM)): 62.33 µg; amount of drug transported into the basolateral chamber (ARPE-19 cell layers; without 3OC12-HSL): 9.85 µg |
| CCCCCCCc1cc(O)c2ccccc2n1 [HHQ] | Yes |  |
| CCCCCCCCCC1=Nc2ccccc2C(=O)C1 [HNQ] | Yes |  |
| CCCCC(=O)CC(=O)NC1CCOC1=O (stereo not drawn) [OC7-HSL] | Yes |  |
| CCCCCCCCCC(=O)CC(=O)Nc1nccs1 [OdDAT] |  | TEER (electrical resistance) upon agent exposure [1]: temporarily reduced; mAb (Mepolizumab) delivery upon agent exposure [1]: increased |
| CCCCCNC(=O)c1[nH]c2ccccc2c(=O)c1O [PQS-C5-Amide] | No |  |
| CCCCCCCCCCCc1cc(=O)c2ccccc2[nH]1 [UHQ] | Yes |  |
| Aflibercept: recombinant fusion protein of VEGF-binding portions of human VEGF receptors 1 and 2 and Fc of human IgG1 |  | fluorescence in eye sections (CLSM) (ex-vivo rat eyes): No fluorescence was detected |
